Assay results as given in the kinase profiling compilation of Christmann-Franck et al. (2016).

Columns and labels:
Test in all cases: radiometric filter-binding kinase assay, Kinase HotSpot
Conditions in all cases: compound 0.5 µM; ATP 10 µM
MAP3K3 (human) = MAP3K3 (human) (UniProt Q99759)
ROS1 (human) = ROS1 (human) (UniProt P08922)
BMX (human) = BMX (human) (UniProt P51813)
MAP2K1 (human) = MAP2K1 (human) (UniProt Q02750)
MARK3 (human) = MARK3 (human) (UniProt P27448)
DAPK3 (human) = DAPK3 (human) (UniProt O43293)
PLK2 (human) = PLK2 (human) (UniProt Q9NYY3)
SRPK2 (human) = SRPK2 (human) (UniProt P78362)
DYRK1B (human) = DYRK1B (human) (UniProt Q9Y463)
CDK7 CCNH MNAT1 (human) = CDK7 CCNH MNAT1 (human) (UniProt P50613+P51948+P51946)
PDGFRA (human) = PDGFRA (human) (UniProt P16234)
NEK3 (human) = NEK3 (human) (UniProt P51956)
Chain of NEK3 (human) (P51956 whole entry, looked up): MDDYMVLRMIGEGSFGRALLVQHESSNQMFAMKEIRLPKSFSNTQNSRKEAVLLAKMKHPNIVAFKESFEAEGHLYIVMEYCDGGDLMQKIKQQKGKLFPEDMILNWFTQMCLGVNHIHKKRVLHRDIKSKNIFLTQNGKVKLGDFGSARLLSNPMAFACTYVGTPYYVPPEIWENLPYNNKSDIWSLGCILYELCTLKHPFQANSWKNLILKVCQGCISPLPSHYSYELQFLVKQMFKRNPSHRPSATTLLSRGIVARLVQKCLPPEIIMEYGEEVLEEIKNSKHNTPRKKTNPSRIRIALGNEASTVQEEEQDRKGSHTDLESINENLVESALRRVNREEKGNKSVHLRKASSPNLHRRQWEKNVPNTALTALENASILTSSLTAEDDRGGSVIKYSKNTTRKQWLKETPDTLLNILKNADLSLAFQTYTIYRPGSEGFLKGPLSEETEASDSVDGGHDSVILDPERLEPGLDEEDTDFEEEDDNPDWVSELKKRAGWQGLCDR

DDR2 (human) = DDR2 (human) (UniProt Q16832)
Chain of DDR2 (human) (Q16832 whole entry, looked up): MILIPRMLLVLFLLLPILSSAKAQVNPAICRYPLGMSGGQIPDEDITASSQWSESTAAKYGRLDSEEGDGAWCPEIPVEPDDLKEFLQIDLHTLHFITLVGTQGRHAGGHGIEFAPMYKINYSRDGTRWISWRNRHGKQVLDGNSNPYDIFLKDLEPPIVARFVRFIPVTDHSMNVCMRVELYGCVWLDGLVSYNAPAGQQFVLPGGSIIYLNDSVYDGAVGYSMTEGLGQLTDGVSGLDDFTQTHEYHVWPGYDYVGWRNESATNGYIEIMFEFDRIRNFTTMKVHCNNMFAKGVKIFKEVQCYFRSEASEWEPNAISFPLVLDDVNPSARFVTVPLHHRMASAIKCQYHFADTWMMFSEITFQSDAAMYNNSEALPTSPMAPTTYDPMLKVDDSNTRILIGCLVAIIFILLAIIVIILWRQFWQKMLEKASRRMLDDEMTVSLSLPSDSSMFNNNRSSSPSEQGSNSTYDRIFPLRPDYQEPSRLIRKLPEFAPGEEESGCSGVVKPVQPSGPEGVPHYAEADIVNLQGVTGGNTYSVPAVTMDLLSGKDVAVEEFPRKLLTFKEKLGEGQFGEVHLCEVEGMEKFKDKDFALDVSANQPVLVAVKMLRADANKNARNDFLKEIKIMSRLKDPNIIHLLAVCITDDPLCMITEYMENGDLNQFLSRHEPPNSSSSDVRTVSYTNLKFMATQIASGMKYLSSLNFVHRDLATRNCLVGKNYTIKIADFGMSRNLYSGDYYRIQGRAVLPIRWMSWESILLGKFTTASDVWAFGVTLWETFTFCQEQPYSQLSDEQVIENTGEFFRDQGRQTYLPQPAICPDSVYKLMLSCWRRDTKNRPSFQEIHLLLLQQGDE

ERBB4 (human) = ERBB4 (human) (UniProt Q15303)
MAP3K9 (human) = MAP3K9 (human) (UniProt P80192)
MAP3K10 (human) = MAP3K10 (human) (UniProt Q02779)
DYRK3 (human) = DYRK3 (human) (UniProt O43781)
Chain of DYRK3 (human) (O43781 whole entry, looked up): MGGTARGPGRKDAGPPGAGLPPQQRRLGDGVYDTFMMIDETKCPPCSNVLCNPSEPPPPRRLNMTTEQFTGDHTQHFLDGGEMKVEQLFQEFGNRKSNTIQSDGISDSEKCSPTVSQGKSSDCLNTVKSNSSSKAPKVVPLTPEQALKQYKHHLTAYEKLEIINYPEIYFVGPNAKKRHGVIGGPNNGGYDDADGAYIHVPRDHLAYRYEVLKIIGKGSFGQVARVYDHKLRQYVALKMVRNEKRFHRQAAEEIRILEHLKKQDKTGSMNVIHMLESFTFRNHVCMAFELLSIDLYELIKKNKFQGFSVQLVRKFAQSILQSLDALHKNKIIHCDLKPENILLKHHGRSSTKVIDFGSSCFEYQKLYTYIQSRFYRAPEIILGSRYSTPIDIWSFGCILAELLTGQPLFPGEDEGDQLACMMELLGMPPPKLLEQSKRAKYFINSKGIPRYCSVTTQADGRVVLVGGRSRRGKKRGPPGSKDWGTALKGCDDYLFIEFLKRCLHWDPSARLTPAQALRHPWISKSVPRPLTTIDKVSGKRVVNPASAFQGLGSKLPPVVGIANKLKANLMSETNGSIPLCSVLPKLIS

PBK (human) = PBK (human) (UniProt Q96KB5)
NTRK3 (human) = NTRK3 (human) (UniProt Q16288)
PNCK (human) = PNCK (human) (UniProt Q6P2M8)
Chain of PNCK (human) (Q6P2M8 whole entry, looked up): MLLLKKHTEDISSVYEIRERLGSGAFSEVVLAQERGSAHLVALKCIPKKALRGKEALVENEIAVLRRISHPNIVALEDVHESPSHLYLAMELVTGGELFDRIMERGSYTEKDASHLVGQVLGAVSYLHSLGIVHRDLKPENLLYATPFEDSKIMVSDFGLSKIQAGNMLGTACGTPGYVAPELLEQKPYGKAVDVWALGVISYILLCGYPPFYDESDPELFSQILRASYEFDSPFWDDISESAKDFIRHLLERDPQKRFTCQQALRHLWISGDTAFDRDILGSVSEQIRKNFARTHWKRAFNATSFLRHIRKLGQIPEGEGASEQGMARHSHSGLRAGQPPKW

CAMK1G (human) = CAMK1G (human) (UniProt Q96NX5)
PRKCG (human) = PRKCG (human) (UniProt P05129)
ADRBK2 (human) = ADRBK2 (human) (UniProt P35626)
TEK (human) = TEK (human) (UniProt Q02763)
PRKD1 (human) = PRKD1 (human) (UniProt Q15139)
RPS6KA4 KD2 (human) = RPS6KA4 KD2 (human) (UniProt O75676)
RIPK2 (human) = RIPK2 (human) (UniProt O43353)
CSK (human) = CSK (human) (UniProt P41240)
ABL1 (human) = ABL1 (human) (UniProt P00519)
TXK (human) = TXK (human) (UniProt P42681)
EPHA1 (human) = EPHA1 (human) (UniProt P21709)
GSG2 (human) = GSG2 (human) (UniProt Q8TF76)
CAMKK2 (human) = CAMKK2 (human) (UniProt Q96RR4)
TNK2 (human) = TNK2 (human) (UniProt Q07912)
CSNK2A1 (human) = CSNK2A1 (human) (UniProt P68400)
Chain of CSNK2A1 (human) (P68400 whole entry, looked up): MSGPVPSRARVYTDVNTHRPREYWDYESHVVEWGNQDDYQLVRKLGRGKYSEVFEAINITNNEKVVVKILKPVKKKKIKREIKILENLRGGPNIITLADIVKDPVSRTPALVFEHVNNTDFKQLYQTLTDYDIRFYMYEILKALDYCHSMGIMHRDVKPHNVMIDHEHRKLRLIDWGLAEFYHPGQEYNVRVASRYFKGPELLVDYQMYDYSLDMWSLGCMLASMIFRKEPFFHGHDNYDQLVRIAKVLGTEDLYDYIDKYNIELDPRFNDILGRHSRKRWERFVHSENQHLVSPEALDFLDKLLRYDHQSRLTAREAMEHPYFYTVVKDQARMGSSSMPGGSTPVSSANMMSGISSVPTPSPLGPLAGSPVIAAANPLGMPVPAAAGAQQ

RET (human) = RET (human) (UniProt P07949)
CAMK2G (human) = CAMK2G (human) (UniProt Q13555)
Chain of CAMK2G (human) (Q13555 whole entry, looked up): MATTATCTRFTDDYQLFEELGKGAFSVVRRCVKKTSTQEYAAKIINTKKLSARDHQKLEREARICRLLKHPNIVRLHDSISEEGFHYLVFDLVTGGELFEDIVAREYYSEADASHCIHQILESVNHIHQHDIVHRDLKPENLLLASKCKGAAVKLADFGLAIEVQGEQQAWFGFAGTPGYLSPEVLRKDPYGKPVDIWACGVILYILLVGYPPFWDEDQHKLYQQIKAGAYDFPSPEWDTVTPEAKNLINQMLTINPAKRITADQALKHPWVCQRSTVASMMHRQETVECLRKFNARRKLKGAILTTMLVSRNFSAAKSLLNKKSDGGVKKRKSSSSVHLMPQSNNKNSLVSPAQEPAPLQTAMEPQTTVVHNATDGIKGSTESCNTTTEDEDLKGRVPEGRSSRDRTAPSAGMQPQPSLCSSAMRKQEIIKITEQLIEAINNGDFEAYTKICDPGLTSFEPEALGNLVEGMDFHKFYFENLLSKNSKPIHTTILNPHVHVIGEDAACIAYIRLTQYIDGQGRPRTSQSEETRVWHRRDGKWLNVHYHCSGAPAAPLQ

TAOK2 (human) = TAOK2 (human) (UniProt Q9UL54)
MAP3K8 (human) = MAP3K8 (human) (UniProt P41279)
IKBKB (human) = IKBKB (human) (UniProt O14920)
ACVR1B (human) = ACVR1B (human) (UniProt P36896)

Chain of MARK3 (human) (P27448 whole entry, looked up): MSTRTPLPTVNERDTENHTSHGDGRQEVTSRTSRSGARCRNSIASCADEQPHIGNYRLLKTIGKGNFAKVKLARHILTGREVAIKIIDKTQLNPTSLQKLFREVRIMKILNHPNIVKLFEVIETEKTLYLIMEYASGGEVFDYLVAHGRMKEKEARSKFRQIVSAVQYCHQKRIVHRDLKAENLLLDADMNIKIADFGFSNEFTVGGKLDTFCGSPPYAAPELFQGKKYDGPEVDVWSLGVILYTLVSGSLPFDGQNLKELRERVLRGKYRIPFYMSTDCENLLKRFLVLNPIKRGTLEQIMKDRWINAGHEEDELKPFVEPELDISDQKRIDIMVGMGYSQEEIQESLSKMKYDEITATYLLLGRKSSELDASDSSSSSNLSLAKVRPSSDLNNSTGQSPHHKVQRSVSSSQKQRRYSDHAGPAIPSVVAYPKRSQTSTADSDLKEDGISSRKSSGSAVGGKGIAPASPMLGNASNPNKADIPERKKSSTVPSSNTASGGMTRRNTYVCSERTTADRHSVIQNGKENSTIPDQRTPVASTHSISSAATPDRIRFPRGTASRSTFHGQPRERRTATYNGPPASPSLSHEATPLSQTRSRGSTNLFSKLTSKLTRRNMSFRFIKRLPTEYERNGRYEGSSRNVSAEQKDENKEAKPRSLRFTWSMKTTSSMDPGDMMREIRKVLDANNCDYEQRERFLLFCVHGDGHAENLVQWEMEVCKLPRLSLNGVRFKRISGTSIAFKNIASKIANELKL
Chain of MAP3K3 (human) (Q99759 whole entry, looked up): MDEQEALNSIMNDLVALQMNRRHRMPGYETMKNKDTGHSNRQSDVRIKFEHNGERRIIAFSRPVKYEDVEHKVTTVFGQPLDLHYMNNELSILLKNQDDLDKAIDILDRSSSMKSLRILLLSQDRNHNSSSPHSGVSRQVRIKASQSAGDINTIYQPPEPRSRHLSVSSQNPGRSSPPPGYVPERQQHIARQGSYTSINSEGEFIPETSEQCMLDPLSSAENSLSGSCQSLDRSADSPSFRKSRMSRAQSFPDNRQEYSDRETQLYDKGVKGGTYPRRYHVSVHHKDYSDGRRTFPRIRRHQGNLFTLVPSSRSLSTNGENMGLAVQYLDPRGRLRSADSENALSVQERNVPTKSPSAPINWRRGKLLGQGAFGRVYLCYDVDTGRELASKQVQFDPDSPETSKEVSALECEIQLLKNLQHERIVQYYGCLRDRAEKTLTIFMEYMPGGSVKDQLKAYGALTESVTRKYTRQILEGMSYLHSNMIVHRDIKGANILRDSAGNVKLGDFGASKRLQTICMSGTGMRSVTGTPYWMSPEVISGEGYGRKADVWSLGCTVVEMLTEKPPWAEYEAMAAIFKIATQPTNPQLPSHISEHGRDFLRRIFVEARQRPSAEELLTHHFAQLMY
Chain of MAP2K1 (human) (Q02750 whole entry, looked up): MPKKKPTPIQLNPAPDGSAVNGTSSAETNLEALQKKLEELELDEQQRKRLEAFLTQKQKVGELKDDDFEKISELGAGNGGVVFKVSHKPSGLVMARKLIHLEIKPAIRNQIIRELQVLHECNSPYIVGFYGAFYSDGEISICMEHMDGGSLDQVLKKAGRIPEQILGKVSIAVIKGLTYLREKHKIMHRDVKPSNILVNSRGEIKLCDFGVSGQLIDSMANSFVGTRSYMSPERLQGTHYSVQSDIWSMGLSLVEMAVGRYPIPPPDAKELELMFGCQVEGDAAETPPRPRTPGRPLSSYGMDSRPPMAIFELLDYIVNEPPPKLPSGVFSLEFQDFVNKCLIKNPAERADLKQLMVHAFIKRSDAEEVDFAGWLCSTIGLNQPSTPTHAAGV

## CC(C)(C)c1cc(C=C(C#N)C#N)cc(Br)c1O
MAP3K3 (human)
  residual activity: 118%
ROS1 (human)
  residual activity: 93.2%
BMX (human)
  residual activity: 113%
MAP2K1 (human)
  residual activity: 90.8%
MARK3 (human)
  residual activity: 105%
DAPK3 (human)
  residual activity: 96.4%
PLK2 (human)
  residual activity: 92.6%
SRPK2 (human)
  residual activity: 109%
DYRK1B (human)
  residual activity: 103%
CDK7 CCNH MNAT1 (human)
  residual activity: 98.5%
PDGFRA (human)
  residual activity: 95.4%
NEK3 (human)
  residual activity: 96.6%
DDR2 (human)
  residual activity: 105%
ERBB4 (human)
  residual activity: 94%
MAP3K9 (human)
  residual activity: 90.2%
MAP3K10 (human)
  residual activity: 100%
DYRK3 (human)
  residual activity: 102%
PBK (human)
  residual activity: 102%
NTRK3 (human)
  residual activity: 104%
PNCK (human)
  residual activity: 107%
CAMK1G (human)
  residual activity: 104%
PRKCG (human)
  residual activity: 90.4%
ADRBK2 (human)
  residual activity: 98%
TEK (human)
  residual activity: 97.9%
PRKD1 (human)
  residual activity: 100%
RPS6KA4 KD2 (human)
  residual activity: 90.9%
RIPK2 (human)
  residual activity: 32.8%
CSK (human)
  residual activity: 106%
ABL1 (human)
  residual activity: 59.8%
TXK (human)
  residual activity: 108%
EPHA1 (human)
  residual activity: 85.1%
GSG2 (human)
  residual activity: 67.2%
CAMKK2 (human)
  residual activity: 92.5%
TNK2 (human)
  residual activity: 93.1%
CSNK2A1 (human)
  residual activity: 99.3%
RET (human)
  residual activity: 98.2%
CAMK2G (human)
  residual activity: 104%
TAOK2 (human)
  residual activity: 96.5%
MAP3K8 (human)
  residual activity: 104%
IKBKB (human)
  residual activity: 95.7%
ACVR1B (human)
  residual activity: 108%
